Assay [1] has as its target T1, IDO1 (Homo sapiens, UniProt P14902). In words: IDO1 cellular activity using Hela cells (IFN-gamma induced IDO expression, kynurenine absorbance at 480 nm). Format: cell-based. The following applies: IDO induced with interferon gamma 50 ng/ml, 24 h compound incubation, read-out: Inhibitory Activity (IC50). Here is the method:
Hela cells were seeded at a density of 20000 cells/well in 100 μl of a culture medium (EMEM supplemented with 10% FBS, penicillin 100 U/ml, and streptomycin 100 μg/ml) in a tissue culture-treated 96 well plate. The cells were cultured in a 5% carbon dioxide incubator for 24 hours, treated with recombinant human interferon gamma at the concentration of 50 ng/ml, and then cultured for 48 hours in a 5% carbon dioxide incubator to induce IDO expression.
The activities were measured using IDO1 cellular activity-measuring substrate (IDO1 cellular activity quickDetect supplements catalog: #62000-2, BPS Bioscience). Specifically, an assay medium was prepared by diluting IDO1 assay medium substrate 1 and IDO1 assay medium supplement 2 in a culture medium at a ratio of 1:100, respectively. The test compounds were diluted to the predetermined concentrations in the fresh assay medium. After removing the culture medium using a multi-pipet, 200 μl of each assay medium containing the test material was added into the respective well, followed by incubating in a 5% carbon dioxide incubator for 24 hours. The next day, 140 μl of culture medium from each well was transferred to a new 96-well plate. 10 μl of 6.1N trichloroacetic acid was added into each well, which was then cultured in a 50° C. incubator for 30 minutes. The plate was centrifuged at 2500 rpm for 10 minutes to settle any sediment. A detection reagent solution was prepared by diluting the detection reagent (component D kit, catalog: #62000-2, BPS Bioscience) 50-fold in acetic acid. 100 μl of the supernatant taken from the centrifuged plate was transferred to a new transparent 96-well plate and then 100 μl of the detection reagent solution was added thereto. After reacting at room temperature for 10 minutes, absorbance was measured at 480 nm wavelength. For analysis of the results, the absorbance (At) of the well containing Hela cells in which IDO protein expression was induced without treatment of an inhibitor was 100%; and the absorbance (Ab) of the well containing Hela cells in which IDO protein expression was not induced was 0. The % absorbance was calculated according to the following equation: % Absorbance=(A−Ab)/(At−Ab), A=absorbance of the well treated with the test compound.
The results obtained by calculating the 50% inhibitory concentration (C50) of each compound, from the absorbance values obtained as described above, are shown in Table 1 below.

The target in assay [2] is T1, IDO1. In words: IDO1 cellular activity using HEK293 cells transfected with IDO1 expression vector. Format: cell-based. Set-up: host or cells: HEK293 cells, transient transfection with Lipofectamine 2000. The following applies: 24 h compound incubation, read-out: Inhibitory Activity (IC50). How it is done:
HEK293 cells were seeded at a density of 30000 cells/well in 100 μl of a culture medium (DMEM supplemented with 10% FBS, penicillin 100 U/ml, and streptomycin 100 μg/ml) in a tissue culture-treated 96 well plate. The cells were cultured in a 5% carbon dioxide incubator for 24 hours, transfected with the IDO1 expression vector (component A in IDO1 cell-based assay kit, catalog #72031, BPS Bioscience) using Lipofectamine 2000 (Life Technologies, #11668027), and then cultured for 24 hours in a 5% carbon dioxide incubator to express the IDO protein.
The activities were measured using a IDO1 cell-based assay kit (catalog #72031, BPS Bioscience). Specifically, an assay medium was prepared by diluting IDO1 assay medium substrate 1 and IDO1 assay medium supplement 2 in a culture medium at a ratio of 1:100, respectively. The test compounds were diluted to the predetermined concentrations in the fresh assay medium. After removing the culture medium using a multi-pipet, 200 μl of each assay medium containing the test material was added into respective well, followed by incubating in a 5% carbon dioxide incubator for 24 hours. The next day, 140 μl of culture medium from each well was transferred to a new 96-well plate. 10 μl of 6.1N trichloroacetic acid was added into each well, which was then cultured in a 50° C. incubator for 30 minutes. The plate was centrifuged at 2500 rpm for 10 minutes to settle any sediment. A detection reagent solution was prepared by diluting the detection reagent (component D in IDO1 cell-based assay kit, catalog #72031 BPS Bioscience) 50-fold in acetic acid. 100 μl of the supernatant taken from the centrifuged plate was transferred to a new transparent 96-well plate and then 100 μl of the detection reagent solution was added thereto. After reacting at room temperature for 10 minutes, absorbance was measured at 480 nm wavelength. For analysis of the results, the absorbance (At) of the well containing HEK293 cells in which IDO protein was expressed without treatment of an inhibitor was 100%; and the absorbance (Ab) of the well containing HEK293 cells in which IDO protein was not expressed was 0. The % absorbance was calculated according to the following equation: % Absorbance=(A−Ab)/(At−Ab), A=absorbance of the well treated with the test compound.

Consider 21 compounds from patent US20240174636A1, “NOVEL INDOLEAMINE 2,3-DIOXYGENASE INHIBITORS, PROCESSES FOR THE PREPARATION THEREOF AND PHARMACEUTICAL COMPOSITIONS COMPRISING THE SAME” (YUHAN CORPORATION, priority 2021, published 2024).

T1 sequence (P14902 whole entry): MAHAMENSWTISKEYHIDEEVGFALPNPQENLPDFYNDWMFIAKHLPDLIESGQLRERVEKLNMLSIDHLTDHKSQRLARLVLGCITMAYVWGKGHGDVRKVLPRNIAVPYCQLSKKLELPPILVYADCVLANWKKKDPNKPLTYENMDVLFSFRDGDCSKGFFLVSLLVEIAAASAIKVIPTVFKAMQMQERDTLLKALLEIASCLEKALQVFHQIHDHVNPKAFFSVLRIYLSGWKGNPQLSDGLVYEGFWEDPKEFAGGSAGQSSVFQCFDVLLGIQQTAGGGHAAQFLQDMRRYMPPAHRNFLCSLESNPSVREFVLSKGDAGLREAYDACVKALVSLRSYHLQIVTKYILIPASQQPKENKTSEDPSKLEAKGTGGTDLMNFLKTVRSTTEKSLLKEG

For the compound `C[C@H](C[C@H]1CC[C@@H](c2ccnc3ccc(F)cc32)CC1)Nc1nc2ncc(Cl)cc2o1` [Example 31, 6-chloro-N-((R)-1-((cis)-4-(6-fluoroquinolin-4-yl)cyclohexyl)propan-2-yl)oxazolo[4,5-b]pyridin-2-amine], the values for the IC50 in assay [1] and in assay [2] were 17.5 nM and 9.1 nM, respectively.

With `C[C@H](C[C@H]1CC[C@@H](c2ccnc3ccc(F)cc32)CC1)Nc1nc2cccnc2o1` [Example 30, N-((R)-1-((cis)-4-(6-fluoroquinolin-4-yl)cyclohexyl)propan-2-yl)oxazolo[5,4-b]pyridin-2-amine], the IC50 worked out at 23.5 nM in assay [1] and 19.1 nM in assay [2].

Turning to `C[C@H](C[C@H]1CC[C@@H](c2ccnc3ccc(F)cc32)CC1)Nc1nc2ncc(Cl)cc2s1` [Example 23, 6-chloro-N-((R)-1-((cis)-4-(6-fluoroquinolin-4-yl)cyclohexyl)propan-2-yl)thiazolo[4,5-b]pyridin-2-amine], the figures for the IC50 in assay [1] and in assay [2] were 27 nM and 7.6 nM, respectively.

For `C[C@H](C[C@H]1CC[C@@H](c2ccnc3ccc(F)cc32)CC1)Nc1nc2c(F)cc(F)cc2s1` [Example 17, 4,6-difluoro-N-((R)-1-((cis)-4-(6-fluoroquinolin-4-yl)cyclohexyl)propan-2-yl)benzo[d]thiazol-2-amine], the IC50 stood at 19 nM in assay [1] and 20.6 nM in assay [2].

Regarding `C[C@H](C[C@H]1CC[C@@H](c2ccnc3ccc(F)cc32)CC1)Nc1nc2ncccc2o1` [Example 32, N-((R)-1-((cis)-4-(6-fluoroquinolin-4-yl)cyclohexyl)propan-2-yl)oxazolo[4,5-b]pyridin-2-amine], the figures for the IC50 in assay [1] and in assay [2] were 11.4 nM and 8.7 nM, respectively.

`C[C@H](C[C@H]1CC[C@@H](c2ccnc3ccc(F)cc32)CC1)Nc1cc(=O)oc2cc(Cl)ccc12` [Example 8, 7-chloro-4-(((R)-1-((cis)-4-(6-fluoroquinolin-4-yl)cyclohexyl)propan-2-yl)amino)-2H-chromen-2-one]: the IC50 in assay [1] was 5.9 nM.

Regarding `C[C@H](C[C@H]1CC[C@@H](c2ccnc3ccc(F)cc32)CC1)Nc1nc2cccc(Cl)c2s1` [Example 18, 7-chloro-N-((R)-1-((cis)-4-(6-fluoroquinolin-4-yl)cyclohexyl)propan-2-yl)benzo[d]thiazol-2-amine], the IC50 in assay [1] is 7.5 nM; in assay [2] it was 4 nM.

On to `CCOc1ccc2nc(N[C@H](C)C[C@H]3CC[C@@H](c4ccnc5ccc(F)cc54)CC3)sc2c1` [Example 19, 6-ethoxy-N-((R)-1-((cis)-4-(6-fluoroquinolin-4-yl)cyclohexyl)propan-2-yl)benzo[d]thiazol-2-amine], for which the IC50 is 14 nM in assay [1] and 8 nM in assay [2].

Turning to `CC[C@H](C[C@H]1CC[C@@H](c2ccnc3ccc(F)cc32)CC1)Nc1nc2ccc(Cl)cc2o1` [Example 27, 6-chloro-N-((R)-1-((cis)-4-(6-fluoroquinolin-4-yl)cyclohexyl)butan-2-yl)benzo[d]oxazol-2-amine], the IC50 came out at 23 nM in assay [1] and 7.4 nM in assay [2].

As for `C[C@H](C[C@H]1CC[C@H](c2ccnc3ccc(F)cc32)CC1)Nc1c(F)c(=O)oc2cc(Cl)ccc12` [Example 10, 7-chloro-3-fluoro-4-(((R)-1-((trans)-4-(6-fluoroquinolin-4-yl)cyclohexyl)propan-2-yl)amino)-2H-chromen-2-one], the IC50 in assay [1] was determined as 10.2 nM; in assay [2], 9.5 nM.

For `COc1ccc2nc(N[C@H](C)C[C@H]3CC[C@@H](c4ccnc5ccc(F)cc54)CC3)oc2c1` [Example 26, N-((R)-1-((cis)-4-(6-fluoroquinolin-4-yl)cyclohexyl)propan-2-yl)-6-methoxybenzo[d]oxazol-2-amine], the IC50 amounted to 15 nM in assay [1] and 6.5 nM in assay [2].

`C[C@H](C[C@H]1CC[C@H](c2ccnc3ccc(F)cc32)CC1)Nc1cc(=O)oc2ccc(Br)cc12` [Example 7, 6-bromo-4-(((R)-1-((trans)-4-(6-fluoroquinolin-4-yl)cyclohexyl)propan-2-yl)amino)-2H-chromen-2-one]: the IC50 in assay [1] came to 19 nM.

In the case of `C[C@H](C[C@H]1CC[C@@H](c2ccnc3ccc(F)cc32)CC1)Nc1nc2ccc(F)cc2o1` [Example 29, 6-fluoro-N-((R)-1-((cis)-4-(6-fluoroquinolin-4-yl)cyclohexyl)propan-2-yl)benzo[d]oxazol-2-amine], the IC50 is 10 nM in assay [1] and 9.9 nM in assay [2].

Take `C[C@H](C[C@H]1CC[C@H](c2ccnc3ccc(F)cc32)CC1)Nc1c(F)c(=O)oc2cc(Br)ccc12` [Example 12, 7-bromo-3-fluoro-4-(((R)-1-((trans)-4-(6-fluoroquinolin-4-yl)cyclohexyl)propan-2-yl)amino)-2H-chromen-2-one]: the IC50 in assay [1] stood at 7.2 nM; in assay [2], 11.2 nM.

For the compound `CCOc1ccc2nc(N[C@H](CC)C[C@H]3CC[C@@H](c4ccnc5ccc(F)cc54)CC3)sc2c1` [Example 20, 6-ethoxy-N-((R)-1-((cis)-4-(6-fluoroquinolin-4-yl)cyclohexyl)butan-2-yl)benzo[d]thiazol-2-amine], the results for the IC50 in assay [1] and in assay [2] were 24 nM and 14.3 nM, respectively.

Take `C[C@H](C[C@H]1CC[C@@H](c2ccnc3ccc(F)cc32)CC1)Nc1nc2ccc(Cl)cc2s1` [Example 13, 6-chloro-N-((R)-1-((cis)-4-(6-fluoroquinolin-4-yl)cyclohexyl)propan-2-yl)benzo[d]thiazol-2-amine]: the IC50 was determined as 30 nM in assay [1] and 32.6 nM in assay [2].

For the compound `C[C@H](C[C@H]1CC[C@@H](c2ccnc3ccc(F)cc32)CC1)Nc1c(F)c(=O)oc2cc(Br)ccc12` [Example 11, 7-bromo-3-fluoro-4-(((R)-1-((cis)-4-(6-fluoroquinolin-4-yl)cyclohexyl)propan-2-yl)amino)-2H-chromen-2-one], the half-inhibitory concentration (IC50) in assay [1] was 18.7 nM; in assay [2], 18.3 nM.

Regarding `C[C@H](C[C@H]1CC[C@H](c2ccnc3ccc(F)cc32)CC1)Nc1cc(=O)oc2cc(Cl)ccc12` [Example 6, 7-chloro-4-(((R)-1-((trans)-4-(6-fluoroquinolin-4-yl)cyclohexyl)propan-2-yl)amino)-2H-chromen-2-one], the IC50 in assay [1] was found to be 17 nM.

As for `C[C@H](C[C@H]1CC[C@@H](c2ccnc3ccc(F)cc32)CC1)Nc1nc2ncccc2s1` [Example 21, N-((R)-1-((cis)-4-(6-fluoroquinolin-4-yl)cyclohexyl)propan-2-yl)thiazolo[4,5-b]pyridin-2-amine], the IC50 in assay [1] is 18 nM.

Take `C[C@H](C[C@H]1CC[C@@H](c2ccnc3ccc(F)cc32)CC1)Nc1ncnc2cc(C#N)ccc12` [Example 1, 4-(((R)-1-((cis)-4-(6-fluoroquinolin-4-yl)cyclohexyl)propan-2-yl)amino)quinazolin-7-carbonitrile]: the IC50 in assay [1] came out at 16 nM.

Turning to `COc1ccc2nc(N[C@H](C)C[C@H]3CC[C@@H](c4ccnc5ccc(F)cc54)CC3)sc2c1` [Example 14, N-((R)-1-((cis)-4-(6-fluoroquinolin-4-yl)cyclohexyl)propan-2-yl)-6-methoxybenzo[d]thiazol-2-amine], in assay [1], the IC50 worked out at 1 nM.

A word on the IC50: it is the point on the concentration scale where inhibition reaches its midpoint.
